The NIST ThermoML archive (doi:10.1016/j.tca.2012.03.022)
± gives the expanded uncertainty stated by the source.

Assay: molar heat capacity at constant pressure; wn = mass fraction of the nth substance listed
Conditions: 101 kPa, Crystal, Small sample (50 mg) DSC

[W] [tungsten] + [Cu]
molar heat capacity at constant pressure [J/K/mol]
Conditions | 295.15 K | 373.15 K | 473.15 K | 573.15 K | 673.15 K
w1 = 0.728 | 25.9 ± 1.1 | 26.59 ± 1.1 | 27.11 ± 1.2 | 27.43 ± 1.2 | 27.89 ± 1.2
w1 = 0.761 | 24.67 ± 1.1 | 25.12 ± 1.1 | 25.61 ± 1.1 | 25.91 ± 1.1 | 26.04 ± 1.1
w1 = 0.837 | 26.96 ± 1.1 | 27.52 ± 1.2 | 28.07 ± 1.2 | 28.41 ± 1.2 | 28.66 ± 1.2
w1 = 0.889 | 25.66 ± 1.1 | 26.21 ± 1.1 | 26.68 ± 1.1 | 26.95 ± 1.1 | 27.19 ± 1.2
w1 = 0.913 | 25.81 ± 1.1 | 26.08 ± 1.1 | 26.45 ± 1.1 | 26.75 ± 1.1 | 26.88 ± 1.1
